Patent publication US10562891B2, “Quinazolinones as PARP14 inhibitors” (Ribon Therapeutics Inc., priority 2017, dated 2020)
pIC50: −log10 of the molar value. Where a name gives a salt, the structure may show the parent alone.

Target: catalytic domain of human PARP14 (Homo sapiens (Human), UniProt Q460N5)
Assay: Enzymatic assay for inhibition of PARP14 (DELFIA, auto-modification with biotin-NAD)
Format: biochemical
Details: auto-modification of PARP14 by biotin-NAD, 50 nM PARP14, 3 μM biotin-NAD
Procedure, shortened: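 DELFIA auto-modification read-out: europium-streptavidin bound to biotin-NAD incorporated onto nickel-captured His-TEV PARP14 catalytic domain. Compound preincubated 30 min, then 50 nM enzyme with 3 μM biotin-NAD reacted 3 h, all at 25 °C, pH 8, then NAD quench. Percent inhibition normalized to rucaparib/DMSO wells, fitted (4- or 3-parameter) for IC50.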

Sequence of catalytic domain of human PARP14 (Q460N5 1611-1801): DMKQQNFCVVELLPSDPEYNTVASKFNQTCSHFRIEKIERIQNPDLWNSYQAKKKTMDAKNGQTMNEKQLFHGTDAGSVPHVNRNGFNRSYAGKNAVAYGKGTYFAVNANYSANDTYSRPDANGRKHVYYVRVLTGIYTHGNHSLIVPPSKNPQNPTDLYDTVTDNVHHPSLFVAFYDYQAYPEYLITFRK

Structure (SMILES)	pIC50
Cc1cccc2c(=O)[nH]c(CS[C@H]3CC[C@H](N)CC3)nc12 [Example 49, 2-(((trans-4-Aminocyclohexyl)thio)methyl)-8-methylquinazolin-4(3H)-one Hydrochloride]	5.00 to 6.00
CN(C)[C@H]1CC[C@H](SCc2nc3cc(OCC4CC4)cc(F)c3c(=O)[nH]2)CC1 [Example 404]	> 6.00
O=c1[nH]c(CSC2CCS(=O)(=O)CC2)nc2cc(NC3CCCC3)c(F)c(F)c12 [Example 316, 7-(Cyclopentylamino)-2-(((1,1-dioxidotetrahydro-2H-thiopyran-4-yl)thio)methyl)-5,6-difluoroquinazolin-4(3H)-one]	> 6.00
O=c1[nH]c(CSC2CCOCC2)nc2cc(NC3CCCC3)ccc12 [Example 115, 7-(Cyclopentylamino)-2-(((tetrahydro-2H-pyran-4-yl)thio)methyl)quinazolin-4(3H)-one]	> 6.00
O=c1[nH]c(CSC2CCOCC2)nc2cc(NCCN3CCOCC3)cc(F)c12 [Example 287, 5-Fluoro-7-((2-morpholinoethyl)amino)-2-(((tetrahydro-2H-pyran-4-yl)thio)methyl)quinazolin-4(3H)-one]	> 6.00
O=c1[nH]c(CSC2CCOCC2)nc2cc(N3CCOCC3)ccc12 [Example 111, 7-Morpholino-2-(((tetrahydro-2H-pyran-4-yl)thio)methyl)quinazolin-4(3H)-one]	5.00 to 6.00
O=c1[nH]c(CSC2CCNCC2)nc2cc(OCC3CC3)ccc12 [Example 275, 7-(Cyclopropylmethoxy)-2-((piperidin-4-ylthio)methyl)quinazolin-4(3H)-one]	> 6.00
Cc1cccc2c(=O)[nH]c(CSC3CCN(C(=O)[C@@H](N)CCCNC(=N)N)CC3)nc12 [Example 170, (S)-1-(4-Amino-5-(4-(((8-methyl-4-oxo-3,4-dihydroquinazolin-2-yl)methyl)thio)piperidin-1-yl)-5-oxopentyl)guanidine Trihydrochloride]	> 6.00
O=c1[nH]c(CSC2CCOCC2)nc2cc(OCC3COC3)cc(F)c12 [Example 343]	> 6.00
Cc1cccc2c(=O)[nH]c(CSC3CCN(Cc4nccn4C)CC3)nc12 [Example 138, 8-Methyl-2-(((1-((1-methyl-1H-imidazol-2-yl)methyl)piperidin-4-yl)thio)methyl)quinazolin-4(3H)-one bistrifluoroacetate]	> 6.00
O=C(CO)N1CCC(SCc2nc3cc(NC4CCCC4)cc(F)c3c(=O)[nH]2)CC1 [Example 214, 7-(Cyclopentylamino)-5-fluoro-2-(((1-(2-hydroxyacetyl)piperidin-4-yl)thio)methyl)quinazolin-4(3H)-one]	> 6.00
O=c1[nH]c(CS[C@H]2CC[C@H](O)CC2)nc2cc(NC3CCCC3(F)F)cc(F)c12 (some centres unmarked) [Example 350]	> 6.00
O=c1[nH]c(CSC2CCOCC2)nc2cc(SCC3CCOCC3)cc(F)c12 [Example 370]	> 6.00
O=c1[nH]c(CS[C@H]2CCN[C@@H](C(F)(F)F)C2)nc2cc(NC3CCCC3)cc(F)c12 (relative stereo) [Example 228, 7-(Cyclopentylamino)-5-fluoro-2-(((cis-2-(trifluoromethyl)piperidin-4-yl)thio)methyl)quinazolin-4(3H)-one hydrochloride]	5.00 to 6.00
O=c1[nH]c(CS[C@H]2CC[C@H](O)CC2)nc2cc(N[C@H]3CCC[C@@H]3F)cc(F)c12 (relative stereo) [Example 340]	> 6.00
O=c1[nH]c(CSC2CCN(C3COC3)CC2)nc2cc(NC3CCCC3)cc(F)c12 [Example 255, 7-(Cyclopentylamino)-5-fluoro-2-(((1-(oxetan-3-yl)piperidin-4-yl)thio)methyl)quinazolin-4(3H)-one]	> 6.00
O=c1[nH]c(CSC2CCOCC2)nc2cc(NC3CCOCC3)c(F)cc12 [Example 245, 6-Fluoro-7-((tetrahydro-2H-pyran-4-yl)amino)-2-(((tetrahydro-2H-pyran-4-yl)thio)methyl)quinazolin-4(3H)-one]	5.00 to 6.00
